# Columns and labels:
# MCF-7 cells [1] = experiment: MTT cell viability assay in MCF-7 cells; format: cell-based
# Experimental: (§3) Cell Viability Assays. Cell viability was assessed by MTT (3-(4,5-dimethylthiazol-2-yl)-2,5-diphenyltetrazolium bromide, Sigma) assay (12). […] MTT (0.5 mg/ml) was then added to each well and the cells incubated at 37° C. for a further 3 hours. The culture medium was removed and formazan crystals reabsorbed in 200 μL DMSO. Cell viability was determined by reading the absorbance of each well at 570 nm using a 96-well microplate reader (Molecular Devices, Wokingham, England). […] Twenty microlitres (20 μL) MTT (5 mg/ml) was then added to each well and the cells incubated at 37° C. for a further 3 hours. The culture medium was removed and formazan crystals reabsorbed in 200 μL DMSO. Cell viability was determined by reading the absorbance of each well at 570 nm using an ELISA plate reader (Molecular Devices).
# (§4) Statistical Analyses. The nature of the interaction between the chemotherapeutic drugs and CH-11 was determined by calculating the R index (RI), which was initially described by Kern and later modified by Romaneli (13, 14). […] Synergism is then defined as an RI of greater than unity. […] To further assess the statistical significance of the interactions, the inventors designed a univariate ANOVA analysis using the SPSS software package. This was an additive model based on the null hypothesis that there was no interaction between the drugs.
# HCT116p53^+/+ cells = experiment: MTT cell viability assay in HCT116 p53 wild-type cells; format: cell-based, human; settings: range of drug concentrations 24 hours, then CH-11 200 ng/ml for 48 hours
# Experimental: as §3, §4
# HCT116p53^−/− cells = experiment: MTT cell viability assay in HCT116 p53 null cells; format: cell-based, human; settings: range of drug concentrations 24 hours, then CH-11 200 ng/ml for 48 hours
# Experimental: as §3, §4
# [2] = tested on: R175H p53 mutant cell line
# Experimental: Plasmids containing the p53 mutations R175H and R248W were kindly provided by Prof. G. Lozano (MD Anderson Cancer Center, Houston). […] Cells were seeded on p90 dishes in Optimem, (Invitrogen) supplemented with 10% FCS, at a density of 1×10^5 cells/dish. Transfection was carried out the following day when the monolayer was approximately 70% confluent. Cells were cotransfected with 1 μg pIRESpuro3 DNA and 20 μg pC53NN p53 mutant DNA using Genejuice Transfection reagent (Novagen, CA, USA) according to the manufacturer's instructions. Stably transfected cells were selected over approximately 14 days in medium containing […] puromycin. […] The DO-1 antibody binds to an N-terminal epitope between amino acid residues 11 and 25.
# Cell Viability Assays. Cell viability was assessed by MTT (3-(4,5-dimethylthiazol-2-yl)-2,5-diphenyltetrazolium bromide, Sigma) assay (12). […] Cell viability was determined by reading the absorbance of each well at 570 nm using a 96-well microplate reader (Molecular Devices, Wokingham, England). […]
# Statistical Analyses. The nature of the interaction between the chemotherapeutic drugs and CH-11 was determined by calculating the R index (RI), which was initially described by Kern and later modified by Romaneli (13, 14). […]
# MCF-7 cells [3] = experiment: Flow cytometry of propidium iodide stained cells, sub-G1/G0 apoptotic fraction, MCF-7; format: cell-based; settings: 5 μM 5-FU alone 96 hours, or 72 hours followed by 250 ng/ml CH-11 24 hours
# Experimental: (§1) Where flow cytometric analysis was employed in Examples 1 to 5, the following protocol was used. Cells were seeded at 1×10^5 per well of a 6-well tissue culture plate. […] DNA content of harvested cells was evaluated after propidium iodide staining of cells using the EPICS XL Flow Cytometer (Coulter, Miami, Fla.). Where flow cytometric analysis was employed in Examples 6 to 12, the following protocol was used. Cells were seeded at 1×10^5 per well of a 6-well tissue culture plate. […] DNA content of harvested cells was evaluated after propidium iodide staining of cells using the EPICS XL Flow Cytometer (Coulter). A FITC-conjugated monoclonal anti-human Fas antibody (DAKO) was used to determine cell surface expression of the receptor. Cells were collected and washed twice in PBS before incubating in the antibody (1/20 dilution) at 4° C. for 30 mins. A non-reactive FITC-conjugated mouse IgG1 antibody was used as a negative control for each sample. Following incubation the cells were washed twice with PBS containing 2% bovine serum albumin and fixed in 0.3 mL 4% paraformaldehyde. Samples were then analysed on the EPICS XL Flow Cytometer (Coulter).
# M7TS90-E6 cells = experiment: Flow cytometry sub-G1/G0 apoptotic fraction, M7TS90-E6; format: cell-based; settings: 96 hours after drug treatment; RTX 100 nM, MTA 1 μM, 5-FU 10 μM
# Experimental: as §1
# Fas [4] = experiment: Western blot of Fas expression in MCF-7 cells; format: cell-based
# Experimental: (§2) Western Blotting. Western blots were performed as previously described (6). The Fas/CD95, Bc1-2 and BID (Santa Cruz Biotechnology, Santa Cruz, Calif.), caspase 8 (Oncogene Research Products, Darmstadt, Germany), p53 (Santa Cruz Biotechnology), and PARP (Pharmingen, BD Biosciences, Oxford, England) mouse monoclonal antibodies were used in conjunction with a horseradish peroxidase (HRP)-conjugated sheep anti-mouse secondary antibody (Amersham, Little Chalfont, Buckinghamshire, England). FasL rabbit polyclonal antibody (Santa Cruz Biotechnology) was used in conjunction with an HRP-conjugated donkey anti-rabbit secondary antibody (Amersham). TS sheep monoclonal primary antibody (Rockland, Gilbertsville, Pa.) was used in conjunction with an HRP-conjugated donkey anti-sheep secondary antibody (Serotech, Oxford, England). Equal loading was assessed using a β-tubulin mouse monoclonal primary antibody (Sigma).
# Fas [5] = experiment: Western blot of Fas expression in HCT116 p53 wild-type cells; format: cell-based, human
# Experimental: as §2
# Fas [6] = experiment: Western blot of Fas expression in RKO cells; format: cell-based; settings: 48 hours post-treatment; MTA data not shown
# Experimental: as §2
# Fas [7] = experiment: Western blot of Fas expression in M7TS90-E6 cells; format: cell-based; settings: 10 μM 5-FU, 100 nM RTX or 1 μM MTA
# Experimental: as §2
# Fas [8] = experiment: Western blot of Fas expression in H630 cells; format: cell-based; settings: range of concentrations, 48 hours
# Experimental: as §2
# FasL = experiment: Western blot of FasL expression in MCF-7 cells; format: cell-based; settings: IC60 doses, 72 hours
# Experimental: as §2
# procaspase 8, BID, PARP = experiment: Western blot of procaspase 8, BID and PARP in MCF-7 cells; format: cell-based; settings: 5 μM 5-FU or 25 nM RTX 72 hours; CH-11 250 ng/ml 24 hours
# Experimental: as §2
# Fas mRNA = experiment: Northern blot of Fas mRNA in MCF-7 cells; format: cell-based; settings: 48 hours, 5 μM 5-FU
# Experimental: Northern blot analysis. Northern blots were performed as described previously using a cDNA probe complementary to the Fas coding region (7). Equal loading was assessed using a P-tubulin cDNA probe.
# Fas/CD95 mRNA = experiment: Real-time PCR of Fas/CD95 mRNA in HCT116 p53 null cells; format: cell-based, human; settings: IC60 72hrs doses, 24 and 48 hours
# Experimental: Real-time PCR was performed using a DNA Engine Opticon 2 (MJ Research Incorporated). TheDyNAmo SYBR Green qPCR kit (Finnzymes) was used as the fluoresent dye specific for double-stranded DNA. PCR conditions consisted of an initial denaturation step of 95° C. for 10 minutes, followed by 39 cycles of 94° C. for 10 secs, 55° C. for 20 secs and 72° C. for 20 secs, with a final extension of 72° C. for 10 minutes. A melting curve was included at the end of each run to check the specificity of the amplified product. Experiments were performed in triplicate to ensure reproducibility of the technique. On completion of the run the PCR products were run put on a 2% ethidium bromide agarose gel to confirm that their size matched that of the expected amplicon. Primer sequences were as follows: Fas (Forward) […], Fas (Reverse) […], 18S (Forward) […], 18S (Reverse) […].
# Fas/CD95 receptor = experiment: Flow cytometry of Fas/CD95 cell surface expression, HCT116 p53 wild-type; format: cell-based, human; settings: 24 hours
# Experimental: as §1
# Fas receptor = experiment: Fas/CD95 cell surface expression in p53 mutant H630 cell line (Example 11); format: cell-based; settings: 48 hours; 5-FU 5 μM, CPT-11 5 μM, Oxaliplatin 1 μM
# Experimental: as §1
smiles,measurement,setting,value
"O=c1[nH]cc(F)c(=O)[nH]1 [5-FU, 5-fluorouracil]",cytotoxicity at 5 µM,"MCF-7 cells [1]; Homo sapiens, MCF7, read-out: decrease in cell viability compared to control",~60%
same,IC60 dose,MCF-7 cells [1]; MCF-7,5 µM
same,interaction with CH-11 in MTT assay,HCT116p53^+/+ cells,significant synergy
same,interaction with CH-11 in MTT assay,HCT116p53^−/− cells,only slight interaction
same,synergistic cytotoxicity of combination with CH-11,[2],synergistic cytotoxicity was demontsrated
same,induction of apoptosis (sub-G1/G0 fraction),MCF-7 cells [3],~2 fold
same,induction of apoptosis by drug alone,M7TS90-E6 cells,little apoptosis
same,Fas protein up-regulation,"Fas [4]; 72 hours, IC60 dose (5 μM 5-FU, 25 nM RTX)",~12 fold
same,Fas expression,"Fas [4]; MTA data not shown, CH-11 alone 250 ng/ml, 5-FU alone 5 μM",dramatic up-regulation
same,induction of Fas/CD95 protein,"Fas [5]; 5-FU 5 μM, CPT-11 5 μM, Oxaliplatin 1 μM for 48 hours",significant induction
same,up-regulation of Fas expression,Fas [5]; after 48 hours,> 10 fold
same,Fas expression,Fas [6],dramatic Fas up-regulation
same,Fas up-regulation,Fas [7],did not result in Fas up-regulation
same,Fas expression,Fas [8],not significantly altered
same,FasL expression,FasL,unaffected
same,"activation of caspase 8 and BID (processing of procaspase 8 and full-length BID), words","procaspase 8, BID, PARP","neither caspase 8, nor its substrate BID were activated"
same,Fas mRNA expression,Fas mRNA,up-regulated
same,maximum induction of Fas mRNA,Fas/CD95 mRNA,2 fold
same,induction of Fas/CD95 receptor cell surface expression,Fas/CD95 receptor,significantly induce expression
same,induction of the Fas receptor,Fas receptor,Neither 5-FU nor Oxaliplatin treatment for 48 hours caused significant upregulation
